Experiments:
Assay in all cases: relative viability (nuclei count vs DMSO), 5 days (fraction); higher = more cells survive
[1] = compound: CCN(CCO)CCCC(C)Nc1ccnc2cc(Cl)ccc12 [Hydroxychloroquine] + O=C(CCCCCCC(=O)Nc1ccccc1)NO [Vorinostat] (partner 1 µM)
Method in brief: (§1)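 Medians of duplicate plates are given as relative viability. That measure is the nuclei count in treated wells divided by the count in vehicle wells. Counts were taken on 4× images of lung cancer cell lines in 1536-well plates, 5 days after pin-tool dosing the day after seeding with one drug alone or a fixed anchor-drug dose plus five library-drug doses (not always all listed) in √10 steps.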

[2] = compound: CCN(CCO)CCCC(C)Nc1ccnc2cc(Cl)ccc12 [Hydroxychloroquine] + CS(=O)(=O)N1CCN(Cc2cc3nc(-c4cccc5[nH]ncc45)nc(N4CCOCC4)c3s2)CC1 [Pictilisib] (partner 1 µM)
Method in brief: as §1

[3] = compound: CCN(CCO)CCCC(C)Nc1ccnc2cc(Cl)ccc12 [Hydroxychloroquine] + C[C@@H](Oc1cc(-c2cnn(C3CCNCC3)c2)cnc1N)c1c(Cl)ccc(F)c1Cl [Crizotinib] (partner 1 µM)
Method in brief: as §1

[4] = compound: CCN(CCO)CCCC(C)Nc1ccnc2cc(Cl)ccc12 [Hydroxychloroquine] + Cc1nc(Nc2ncc(C(=O)Nc3c(C)cccc3Cl)s2)cc(N2CCN(CCO)CC2)n1 [Dasatinib] (partner 0.075 µM)
Method in brief: as §1

| Cell Line | relative viability ([1]; first compound 0.5 µM) | relative viability ([1]; first compound 1.581 µM) | relative viability ([1]; first compound 5 µM) | relative viability ([1]; first compound 15.81 µM) | relative viability ([1]; first compound 50 µM) | relative viability ([2]; first compound 0.5 µM) | relative viability ([2]; first compound 1.581 µM) | relative viability ([2]; first compound 5 µM) | relative viability ([2]; first compound 15.81 µM) | relative viability ([2]; first compound 50 µM) | relative viability ([3]; first compound 0.5 µM) | relative viability ([3]; first compound 1.581 µM) | relative viability ([3]; first compound 5 µM) | relative viability ([3]; first compound 15.81 µM) | relative viability ([3]; first compound 50 µM) | relative viability ([4]; first compound 0.5 µM) | relative viability ([4]; first compound 1.581 µM) | relative viability ([4]; first compound 5 µM) | relative viability ([4]; first compound 15.81 µM) | relative viability ([4]; first compound 50 µM) |
| --- | --- | --- | --- | --- | --- | --- | --- | --- | --- | --- | --- | --- | --- | --- | --- | --- | --- | --- | --- | --- |
| HCC-78 | 0.632 | 0.381 | 0.438 | 0.446 | 0.509 | 0.21 | 0.176 | 0.221 | 0.224 | 0.165 | 0.349 | 0.325 | 0.338 | 0.314 | 0.358 | 0.529 | 0.421 | 0.495 | 0.374 | 0.375 |
| HCC-366 | 0.339 | 0.232 | 0.301 | 0.338 | 0.434 | 0.202 | 0.13 | 0.198 | 0.18 | 0.148 | 0.698 | 0.607 | 0.402 | 0.514 | 0.612 | 0.739 | 0.731 | 0.624 | 0.768 | 0.719 |
| HCC-827 | 0.811 | 0.873 | 0.786 | 0.759 | 0.571 | 1.01 | 0.899 | 0.755 | 0.98 | 1.06 | 0.86 | 0.916 | 1.01 | 0.976 | 0.871 | 0.306 | 0.378 | 0.312 | 0.388 | 0.314 |
| HOP-62 | 0.584 | 0.628 | 0.573 | 0.574 | 0.69 | 0.682 | 0.643 | 0.722 | 0.854 | 0.515 | 0.954 | 0.836 | 0.843 | 1.05 | 0.744 | 0.57 | 0.601 | 0.717 | 0.636 | 0.58 |
| IA-LM | 1.02 | 1.13 | 1.03 | – | 1.06 | 0.296 | 0.357 | 0.361 | 0.433 | 0.338 | 0.839 | 0.95 | 0.898 | 0.718 | 0.899 | – | – | – | – | – |
| LC-2-ad | 0.707 | 0.691 | 0.694 | 0.702 | 0.697 | 0.321 | 0.395 | 0.463 | 0.546 | 0.436 | 0.44 | 0.426 | – | 0.473 | 0.547 | 0.56 | 0.684 | 0.603 | 0.639 | 0.595 |
| LCLC-97TM1 | 0.778 | 0.742 | 0.772 | 0.766 | 0.797 | 0.265 | 0.183 | 0.277 | 0.182 | 0.131 | 0.379 | 0.259 | 0.4 | 0.449 | 0.481 | 0.866 | 0.896 | 0.903 | 0.841 | 0.808 |
| LCLC-103H | 0.859 | 0.718 | 0.752 | 0.829 | 0.793 | 0.666 | 0.612 | 0.567 | 0.542 | 0.67 | 1.03 | 1.01 | 0.951 | 1.04 | 1.14 | 0.367 | 0.405 | 0.523 | 0.547 | 0.543 |
| LK-2 | 0.318 | 0.274 | 0.248 | 0.299 | 0.294 | 0.607 | – | 0.58 | 0.62 | 0.558 | 0.246 | – | 0.198 | 0.181 | 0.197 | 0.258 | 0.261 | – | 0.294 | 0.357 |
| LOU-NH91 | 0.89 | 0.72 | 0.88 | 0.933 | 0.868 | 0.531 | 0.488 | 0.567 | 0.509 | 0.488 | 0.726 | 0.727 | 0.742 | 0.739 | 0.741 | 0.559 | 0.453 | 0.588 | 0.581 | 0.593 |
| LU99A | 0.559 | 0.474 | 0.465 | 0.435 | 0.507 | 0.367 | 0.288 | 0.337 | 0.28 | 0.362 | 0.566 | 0.533 | 0.593 | 0.606 | 0.66 | 0.47 | 0.502 | 0.714 | 0.613 | 0.612 |
| LXF-289 | 0.767 | 0.795 | 0.723 | 0.757 | 0.709 | 0.765 | 0.819 | 0.797 | 0.736 | 0.769 | 0.838 | 0.773 | 0.803 | 0.822 | 0.853 | 0.234 | 0.212 | 0.217 | 0.202 | 0.195 |
| NCI-H522 | 0.832 | – | 0.882 | 0.904 | 1.01 | – | – | – | – | – | – | – | – | – | – | 0.933 | 0.942 | 0.755 | 1.03 | 0.913 |
| NCI-H1299 | – | – | – | – | – | 0.805 | 0.682 | 0.867 | 0.845 | 0.746 | 0.999 | 0.937 | 0.91 | 0.98 | 0.693 | – | – | – | – | – |
| NCI-H1395 | 0.756 | 0.716 | 0.606 | 0.743 | 0.674 | 0.605 | 0.836 | 0.627 | 0.564 | 0.569 | – | – | – | – | – | 0.424 | 0.402 | 0.401 | 0.391 | 0.405 |
| NCI-H1563 | – | – | – | – | – | 0.694 | 0.605 | 0.574 | 0.627 | 0.596 | 0.808 | 0.833 | 0.848 | 0.83 | 0.806 | 0.509 | 0.501 | 0.449 | 0.475 | 0.421 |
| NCI-H1648 | 0.458 | 0.44 | 0.422 | 0.68 | 0.503 | – | – | – | – | – | – | – | – | – | – | – | – | – | – | – |
| NCI-H1703 | – | – | – | – | – | 0.272 | 0.241 | 0.224 | 0.263 | 0.216 | 0.851 | – | 0.592 | 0.74 | 0.921 | – | – | – | – | – |
| NCI-H1792 | – | – | – | – | – | 0.286 | 0.256 | 0.254 | 0.26 | 0.249 | 0.951 | 1.05 | 1.01 | 1.08 | 1.07 | 0.922 | 0.936 | 0.759 | 0.825 | 0.711 |
| NCI-H1793 | 0.791 | 0.606 | 0.548 | 0.638 | 0.804 | 0.349 | 0.308 | 0.415 | 0.307 | 0.364 | – | – | – | – | – | 0.464 | 0.36 | 0.423 | 0.413 | 0.476 |
| NCI-H2342 | 0.713 | 0.812 | 0.812 | 0.813 | 0.848 | – | – | – | – | – | – | – | – | – | – | 0.338 | 0.312 | 0.32 | 0.292 | 0.34 |
